Reference: US8202910B2 (Sequella, Inc., priority 2006, dated 2012)
≈ marks a conversion by molar mass, not a printed value. Where “and” joins values, the source holds several entries; their conditions need not be identical. Equal values may be shown once. Entries after “also recorded” stand apart in the source; their conditions may differ. Read-outs that look alike come from different tables or passages of the source.

Assays:
[1] = Toxicity, dose escalation study in mice; conditions: C57BL/6, mouse, in vivo
Experimental: Toxicity was assessed using a dose escalation study. This study was performed with ten C57BL/6 mice per candidate. Every two days, the mice were administered an increased concentration of the drug, and monitored for detrimental effects. The administration scheme was 50, 100, 200, 400, 600, 800 and 1000 mg/kg.

M. avium = experiment: Spectrum (unpublished data); format: cell-based
dopamine receptor D2S = biological target: T1, dopamine receptor D2S (Homo sapiens, UniProt P14416); experiment: CEREP receptor binding, D2S; conditions: tested at 10 μM; read-out: inhibition of control specific binding
T1 construct: CEREP (contract testing)
T1 sequence (P14416 1-414 isoform P14416-2): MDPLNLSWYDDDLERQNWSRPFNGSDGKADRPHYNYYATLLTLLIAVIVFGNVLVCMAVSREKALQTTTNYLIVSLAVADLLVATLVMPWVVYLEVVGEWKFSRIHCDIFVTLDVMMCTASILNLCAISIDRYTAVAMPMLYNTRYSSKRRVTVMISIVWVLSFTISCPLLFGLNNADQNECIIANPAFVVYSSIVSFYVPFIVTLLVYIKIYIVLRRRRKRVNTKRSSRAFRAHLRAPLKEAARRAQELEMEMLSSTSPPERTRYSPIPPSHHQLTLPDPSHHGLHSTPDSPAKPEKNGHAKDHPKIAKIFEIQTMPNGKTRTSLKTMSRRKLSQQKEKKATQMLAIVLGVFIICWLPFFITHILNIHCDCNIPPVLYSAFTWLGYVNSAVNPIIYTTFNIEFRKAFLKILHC
From the text: (§1) In vitro testing for safety pharmacology and early ADMET (Absorption, Distribution, Metabolism, Excretion, Toxicity) studies of compound 109 were contracted out to CEREP (15318 NE 95th Street, Redmond, Wash., 98052, USA www.cerep.com) under a service agreement and included evaluation of inhibitory binding to a panel of 27 standard receptors and three transporters (See FIG. 60 (Table 31) and FIG. 61 (Table 32)) which included: adenosine receptors (A1 and A2A), adrenergic receptors (alpha 1, alpha 2, beta 1), angiotensin II receptor (AT1), benzodiazapene receptor (BZD), bradykinin receptor (B2), cholecystokinin receptor (CCK1), dopamine receptors (D1, D2S), endothelin receptor (ETA), GABA receptor (GABA), glutamate receptor (NMDA), histamine receptor (H1 central), melanocortin receptor (MC4), muscarinic receptor (M, non-selective), neurokinin receptor (NK1), neuropeptide Y receptor (Y), nicotinic receptor (neuronal, alpha-BGTX-insensitive), opiate receptor (non-selective opiate), orphanin receptor (ORL1), phencyclidine receptor (PCP), serotonin receptor (5-HT), sigma receptor (sigma non-selective), steroid receptor (glucocorticoid receptor, GR), and NE, DA, and 5-HT transporters.
(§2) The specific ligand binding to the receptors is defined as the difference between the total binding and the nonspecific binding determined in the presence of an excess of unlabelled ligand.

Haemophilus influenzae = experiment: Spectrum of activity MIC (NCCLS); format: cell-based; conditions: three isolates
Experimental: (§3) Compound 109 was tested against a representative panel of commonly encountered clinical microorganisms comprising opportunistic pathogens, target pathogens and normal human flora. The spectrum of activity of compound 109 was evaluated by performing antimicrobial susceptibility testing against a collection of aerobic and anaerobic bacteria, fungi, and mycobacteria. MICs for all organisms were established using the appropriate NCCLS (National Committee for Clinical Laboratory Standards) recommended standard methods and quality control strains.

Streptococcus pneumoniae = experiment: Spectrum of activity MIC (NCCLS); format: cell-based
Experimental: as §3

Staphylococci = experiment: Spectrum of activity MIC (NCCLS); format: cell-based; conditions: all Staphylococci tested
Experimental: as §3

Helicobacter pylori = experiment: Spectrum of activity MIC (NCCLS); format: cell-based; conditions: all three strains tested
Experimental: as §3

enterococci = experiment: Spectrum of activity MIC (NCCLS); format: cell-based; conditions: all species of enterococci tested
Experimental: as §3

M. avium complex (MAC) = experiment: Spectrum of activity MIC, MOTT, agar proportion method; format: cell-based; conditions: Mycobacterium avium; three isolates
M. kansasii = experiment: as above; format: cell-based; conditions: Mycobacterium kansasii; three tested
Dopamine DA transporter = biological target: T2, Dopamine DA transporter (Homo sapiens, UniProt Q01959); experiment: CEREP transporter binding, DA; conditions: tested at 10 μM; read-out: inhibition of control specific binding
T2 construct: CEREP (contract testing)
T2 sequence (Q01959 whole entry): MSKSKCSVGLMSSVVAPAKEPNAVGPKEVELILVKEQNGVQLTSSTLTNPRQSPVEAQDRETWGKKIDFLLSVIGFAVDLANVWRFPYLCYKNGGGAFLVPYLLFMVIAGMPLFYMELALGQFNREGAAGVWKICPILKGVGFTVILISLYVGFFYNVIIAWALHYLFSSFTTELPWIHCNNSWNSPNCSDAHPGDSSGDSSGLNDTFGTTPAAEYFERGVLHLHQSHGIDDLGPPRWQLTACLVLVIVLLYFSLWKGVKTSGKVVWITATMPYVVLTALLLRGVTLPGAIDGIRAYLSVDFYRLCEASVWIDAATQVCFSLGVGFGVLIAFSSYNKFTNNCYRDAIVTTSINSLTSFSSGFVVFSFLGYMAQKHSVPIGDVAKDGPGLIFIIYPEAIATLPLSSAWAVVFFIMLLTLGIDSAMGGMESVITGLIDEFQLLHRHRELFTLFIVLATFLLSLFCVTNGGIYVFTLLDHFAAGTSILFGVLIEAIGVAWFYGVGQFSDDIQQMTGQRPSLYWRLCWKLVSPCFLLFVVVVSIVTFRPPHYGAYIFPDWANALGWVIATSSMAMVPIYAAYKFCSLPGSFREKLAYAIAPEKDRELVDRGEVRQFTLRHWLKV
From the text: as §1, §2

wild type of M.tb = experiment: MIC, secondary screening, wild type; format: cell-based, Mycobacterium tuberculosis; conditions: Mycobacterium tuberculosis, WT
[2] = test system: H37Rv strain of Mycobacterium tuberculosis; experiment: microbe, parasite or virus in culture; format: cell-based
[3] = test system: RIF^R M. tuberculosis strain 3185; format: cell-based
M. bovis BCG = experiment: microbe, parasite or virus in culture; format: cell-based; conditions: Mycobacterium tuberculosis variant bovis BCG
M. bovis = experiment: microbe, parasite or virus in culture; format: cell-based; conditions: Mycobacterium tuberculosis variant bovis
[4] = test system: RIF^R M. tuberculosis isolate 3185; experiment: microbe, parasite or virus in culture; format: cell-based
[5] = PK, tissue distribution, excretion and metabolism of compound 109 in mice; format: in vivo; set-up: Amount cumulatively excreted, Feces / Amount cumulatively excreted, Urine: unit not given here; conditions: for half-life: read-out: T1/2 el (converted)
Experimental: Initially, analytical methods for determination of the compounds had been developed that allowed to carry out all the PK experiments, sec FIG. 29. Here is a brief description of the experiment: (1) plasma spiked with tested compounds and 10 uL of Terfenadine or plasma samples (200 uL) added; (2) ACN (2 mL) added to precipitate protein and spin at 2,500 rpm; (3) evaporate supernatant to dryness; (4) add 200 uL of the diluting solvent: methanol (with 0.1% of trifluoroacetic acid): ammonium acetate (80/20); (5) vortex, spin, and use supernatant; (6) run LC/MS/MS on Sciex API 3000.
Conjugated metabolites are products of the typical metabolic pathway N-glucoronidation formed by reaction with glucuronic acid (D. A. Williams and T. L. Lemke in Foye's Principals of Medicinal Chemistry, 5th Ed., p.202).

With `CC(C)=CCC/C(C)=C/CNCCNC1C2CC3CC(C2)CC1C3` (stereo not drawn) [Compound 109, N-Geranyl-N′-(2-adamanthyl)ethane-1,2-diamine] the tolerated dose [1] was 800 mg/kg, the activity (M. avium) was “much less active” and the inhibition at 10 µM (dopamine receptor D2S) was 73%. For the same compound, the MIC (Haemophilus influenzae) was 1 to 32 µg/mL (≈ 3.03 to 96.8 µM), the MIC (Streptococcus pneumoniae) was 4 to 8 µg/mL (≈ 12.1 to 24.2 µM) and the MIC (Staphylococci) was 16 to 32 µg/mL (≈ 48.4 to 96.8 µM). For the same compound, the MIC (Helicobacter pylori) was 4 µg/mL (≈ 12.1 µM), the MIC (enterococci) was 16 to 64 µg/mL (≈ 48.4 to 194 µM) and the MIC (M. avium complex (MAC)) was 8 to 32 µg/mL (≈ 24.2 to 96.8 µM). For the same compound, the MIC (M. kansasii) was 16 µg/mL (≈ 48.4 µM), the inhibition at 10 µM (Dopamine DA transporter) was 63% and the MIC (wild type of M.tb; value in brackets, read-out: MIC (or uM)) was 0.18 µM. The MIC (wild type of M.tb; EMB, RL241, Cmpd#59 as 2HCl salt, Cmpd#109 as 2CF3COOH salt, read-out: MIC) was 0.1 µg/mL, the “MIC” value [2] was 1.953 µM and 1.95 µM and the MIC ([2]; Mycobacterium tuberculosis, H37RV, Table 10, from uM and MW, read-out: MIC) was 0.879 µg/mL. The MIC ([2]; Mycobacterium tuberculosis, H37RV, Table 10, read-out: MIC) was 1.95 µM, the MIC ([2]; Mycobacterium tuberculosis, H37RV, Table 15, read-out: MIC) was 1.56 µM and the MIC ([2]; Mycobacterium tuberculosis, H37RV, previously determined, read-out: MIC by micro-broth dilution) was 0.2 µM and 0.11 µg/mL. For the same compound, the MIC ([2]; Mycobacterium tuberculosis, H37RV, read-out: MIC) was 1.95 µM, the growth inhibition [3] was “greater than 99%” and the x/y quotient ([3]; 0.5 MIC SQ109 + rifampicin 4 mg/L) was 0.64. For the same compound, the x/y quotient ([3]; 0.5 MIC SQ109 + rifampicin 8 mg/L) was 0.48, the x/y quotient ([3]; 0.5 MIC SQ109 + rifampicin 12 mg/L) was 0.40 and the x/y quotient ([3]; 0.5 MIC SQ109 + rifampicin 16 mg/L) was 0.35. The MIC (M. bovis BCG) was 0.5 µg/mL (≈ 1.51 µM), the MIC (M. bovis) was 0.25 µg/mL (≈ 0.756 µM) and the MIC ([4]; Mycobacterium tuberculosis, read-out: MIC (BACTEC)) was 0.32 µg/mL (≈ 0.968 µM). For the same compound, the “MIC (BACTEC)” value ([4]; isolate 3185) was 0.32 µg/mL (≈ 0.968 µM), the “Amount cumulatively excreted, Feces” value ([5]; 3 mg/kg i.v., 0-4 h) was less than 0.01 and the “Amount cumulatively excreted, Urine” value ([5]; 3 mg/kg i.v., 0-4 h, unit not given) was less than 0.01. For the same compound, the “Amount cumulatively excreted, Feces” value ([5]; 3 mg/kg i.v., 4-8 h) was 0.01, the “Amount cumulatively excreted, Urine” value ([5]; 3 mg/kg i.v., 4-8 h) was less than 0.01 and the “Amount cumulatively excreted, Feces” value ([5]; 3 mg/kg i.v., 8-24 h) was 0.04. The “Amount cumulatively excreted, Urine” value ([5]; 3 mg/kg i.v., 8-24 h) was 0.03, the “Amount cumulatively excreted, Feces” value ([5]; 3 mg/kg i.v., 24-32 h) was less than 0.01 and the “Amount cumulatively excreted, Urine” value ([5]; 3 mg/kg i.v., 24-32 h) was 0.01. For the same compound, the “Amount cumulatively excreted, Feces” value ([5]; 3 mg/kg i.v., Total 0-32 h) was 0.06, the “Amount cumulatively excreted, Urine” value ([5]; 3 mg/kg i.v., Total 0-32 h) was 0.04 and the “Amount cumulatively excreted, Feces” value ([5]; 25 mg/kg p.o., 0-4 h) was 0.48. The “Amount cumulatively excreted, Feces” value ([5]; 25 mg/kg p.o., 4-8 h) was 0.31, the “Amount cumulatively excreted, Feces” value ([5]; 25 mg/kg p.o., 8-24 h) was 1.12 and the “Amount cumulatively excreted, Feces” value ([5]; 25 mg/kg p.o., 24-32 h) was 0.08. The “Amount cumulatively excreted, Feces” value ([5]; 25 mg/kg p.o., Total 0-32 h) was 2.0, the tissue distribution ([5]; i.v. 3 mg/kg, p.o. 25 mg/kg) was “primarily distributes into the lungs and spleen” and the “plasma level relative to MBC” value ([5]; iv or p.o.) was “reaches and exceeds its Minimum Bactericidal Concentration”. For the same compound, the “metabolites (breakdown products) in urine” value ([5]; mouse urine) was “did not provide evidence of breakdown products”, the “conjugated (N-glucoronidation) metabolites in urine” value ([5]; mouse urine, first 24 hr) was “No glucoronidation metabolites; also recorded: no evidence for the formation of conjugated metabolites” and the “total amount after excretion (urine and feces)” value ([5]; mouse, in vivo) was ≤ 3 % of the delivered dose. The total clearance ([5]; mouse, in vivo) was “less than hepatic blood flow”, the AUC ([5]; mouse, in vivo, iv, 3 mg/kg) was 792 ng·h/mL and the Cmax ([5]; mouse, in vivo, iv, 3 mg/kg) was 1040 ng/mL. The Tmax ([5]; mouse, in vivo, iv, 3 mg/kg) was 0 h, the clearance ([5]; mouse, in vivo, iv, 3 mg/kg) was 63.1 mL/min/kg and the half-life ([5]; mouse, in vivo, iv, 3 mg/kg) was 3.5 h. For the same compound, the Vd ([5]; mouse, in vivo, iv, 3 mg/kg, read-out: Vdss) was 11.8 L/kg, the AUC ([5]; mouse, in vivo, po, 25 mg/kg) was 254 ng·h/mL and the Cmax ([5]; mouse, in vivo, po, 25 mg/kg) was 135 ng/mL. It also gave a Tmax ([5]; mouse, in vivo, po, 25 mg/kg) of 0.31 h, a bioavailability ([5]; mouse, in vivo, po, 25 mg/kg) of 3.8% and a half-life ([5]; mouse, in vivo, po, 25 mg/kg) of 5.2 h.
